What was measured:
[1] = tested on: human lymphoid cells; assay: tritiated thymidine uptake in secondary mixed lymphocyte reaction; assay type: cell-based; conditions: 2°-MLR; for inhibition at 740 µM / inhibition at 2200 µM / inhibition at 6700 µM / inhibition at 20000 µM: Homo sapiens, Lymphocyte
Experimental: In addition to testing the immunosuppressive activities of succinylacetone derivatives in a primary mixed lymphocyte reaction, or a phytohemagglutinin stimulation assay, two of the derivatives, succinylacetone methyl ester and methyl 4-acetyl-5-oxohexanoate, were tested in a secondary mixed lymphocyte reaction assay. The secondary mixed lymphocyte assays differs from the primary mixed lymphocyte reaction assays in that they employ many more primed responder cells that are responsive to the primary stimulating cells. The presence of such responsive cells is a reflection of immunological memory in an ongoing immunological response. […] These cells are then used in the secondary mixed lymphocyte reaction. It is worth noting that because a secondary mixed lymphocyte reaction is greatly enriched for responsive cells, fewer cells can be used in the secondary assay.
It will be appreciated that described therein is a method for carrying out secondary lymphocyte reactions using mouse cells, however such methods are generally applicable to performing secondary mixed lymphocyte reactions using human cells with modifications that are well known to those skilled in the art. […] The assays were conducted in duplicate involving lymphoid cells isolated from two individuals.

[2] = tested on: human lymphocytes; assay: tritiated thymidine uptake in primary mixed lymphocyte reaction; assay type: cell-based; conditions: for incorporation of tritiated thymidine: Table IV
Description: The in vitro mixed lymphocyte assay described below is presently employed in the clinical setting as an indicator of histocompatibility, and is premised on the transformation of resting genetically dissimilar lymphocytes into cells which synthesize DNA and undergo proliferation.
The mixed lymphocyte reaction assay can be carried out by techniques well known to those skilled in the art. L. Hudson and F. C. Huy, Practical Immunology, p. 260, Blackwell Scientific Publications (1976). Briefly this consists of isolating lymphocytes from human peripheral blood by standard density gradient centrifugation techniques from two separate individuals. Approximately 2×10^5 lymphocytes of each individual are combined to yield a total of 4×10^5 lymphocytes per culture. All procedures are carried out under sterile conditions, and the lymphocytes are isolated and kept in physiologically compatible solutions. To the mixture of lymphocytes is added a desired amount of an appropriate succinylacetone derivative, and after different times an aliquot of the mixture is removed and assayed for IL-2 or IFN-γ, or ^3 H-T is measured.
As mentioned above, one measure of an immune response as reflected in a mixed lymphocyte assay is the stimulation of DNA synthesis, and a concomitant increase in cell number. Thus, to further ascertain the immunosuppressive activity of succinylacetonyl-proline-NH-PEG, its effect on inhibition of thymocyte growth, as detected by uptake of tritiated thymidine, was assayed.

[3] = viability of peripheral blood lymphocytes with or without PHA, trypan blue exclusion; assay type: cell-based, human; conditions: human, peripheral blood lymphocytes; for viability at 2200 µM: 2.2 mM; for viability at 6700 µM: 6.7 mM; for viability at 20000 µM: 20 mM
Experimental: Viability was determined using the trypan blue exclusion method well known in the art. […] The assays were conducted in duplicate wherein peripheral blood lymphocytes were isolated from two separate individuals, and then treated with or without phytohemagglutinin in the presence of various concentrations of the appropriate succinylacetone derivative.

[4] = tested on: human lymphocytes; assay: phytohemagglutinin (PHA) stimulation assay, tritiated thymidine uptake; assay type: cell-based
Experimental: A second assay widely used to study immune responsiveness is mitogenic stimulation of thymocytes with antigenic substances of plant origin. The most widely used plant molecule is phytohemagglutinin (PHA).
The procedure for carrying out the phytohaemagglutinin assay is also well known to those skilled in the art. Briefly, it consists of isolating human lymphocytes as described above, and incubating about 1.0×10^6 cells per ml in a suitable physiological solution with phytohaemagglutinin, and the appropriate concentration of succinylacetone-proline-NH-PEG. Tritiated thymidine is added 48 hours later and allowed to incubate for twenty-four hours before the cells are counted.

COC(=O)CCC(C(C)=O)C(C)=O [Methyl 4-Acetyl-5-Oxohexanoate, methyl 4-acetyl-5-oxohexanoate]
CPM ([1]; Exp I, 247 μM): 73805 CPM | CPM ([1]; Exp I, 740 μM): 61568 CPM | CPM ([1]; Exp I, 2.2 mM): 1995 CPM | CPM ([1]; Exp I, 6.7 mM): 112 CPM | CPM ([1]; Exp I, 20 mM): 76 CPM | CPM ([1]; Exp II, 247 μM): 86893 CPM | CPM ([1]; Exp II, 740 μM): 88958 CPM | CPM ([1]; Exp II, 2.2 mM): 43264 CPM | CPM ([1]; Exp II, 6.7 mM): 4402 CPM | CPM ([1]; Exp II, 20 mM): 134 CPM | inhibition at 740 µM ([1]; Exp I, 740 μM): 23.6% | inhibition at 2200 µM ([1]; Exp I, 2.2 mM): 97.5% | inhibition at 6700 µM ([1]; Exp I, 6.7 mM): 9.99% | inhibition at 20000 µM ([1]; Exp I, 20 mM): 9.99% | inhibition at 740 µM ([1]; Exp II, 740 μM): 4.8% | inhibition at 2200 µM ([1]; Exp II, 2.2 mM): 53.7% | inhibition at 6700 µM ([1]; Exp II, 6.7 mM): 95.3% | inhibition at 20000 µM ([1]; Exp II, 20 mM): 9.99% | IC50 ([2]; Homo sapiens, Lymphocyte, primary MLR, read-out: concentration causing 50% inhibition in thymidine uptake): ~2200 µM | incorporation of tritiated thymidine ([2]; Exp I, 3 μM): 74259 | incorporation of tritiated thymidine ([2]; Exp I, 9 μM): 77627 | incorporation of tritiated thymidine ([2]; Exp I, 27 μM): 77634 | incorporation of tritiated thymidine ([2]; Exp I, 81 μM): 81881 | incorporation of tritiated thymidine ([2]; Exp I, 244 μM): 48284 | incorporation of tritiated thymidine ([2]; Exp I, 733 μM): 67787 | incorporation of tritiated thymidine ([2]; Exp I, 2.2 mM): 29389 | incorporation of tritiated thymidine ([2]; Exp I, 6.7 mM): 135 | incorporation of tritiated thymidine ([2]; Exp I, 20 mM): 163 | incorporation of tritiated thymidine ([2]; Exp II, 3 μM): 114713 | incorporation of tritiated thymidine ([2]; Exp II, 9 μM): 117109 | incorporation of tritiated thymidine ([2]; Exp II, 27 μM): 112463 | incorporation of tritiated thymidine ([2]; Exp II, 81 μM): 113054 | incorporation of tritiated thymidine ([2]; Exp II, 244 μM): 122672 | incorporation of tritiated thymidine ([2]; Exp II, 733 μM): 113732 | incorporation of tritiated thymidine ([2]; Exp II, 2.2 mM): 84363 | incorporation of tritiated thymidine ([2]; Exp II, 6.7 mM): 21280 | incorporation of tritiated thymidine ([2]; Exp II, 20 mM): 109 | viability at 3 µM ([3]; first individual, (+) PHA): 100% | viability at 9 µM ([3]; first individual, (+) PHA): 100% | viability at 27 µM ([3]; first individual, (+) PHA): 100% | viability at 81 µM ([3]; first individual, (+) PHA): 100% | viability at 244 µM ([3]; first individual, (+) PHA): 100% | viability at 733 µM ([3]; first individual, (+) PHA): 100% | viability at 2200 µM ([3]; first individual, (+) PHA): 100% | viability at 6700 µM ([3]; first individual, (+) PHA): 100% | viability at 20000 µM ([3]; first individual, (+) PHA): 100% | viability at 3 µM ([3]; first individual, (-) PHA): 100% | viability at 9 µM ([3]; first individual, (-) PHA): 100% | viability at 27 µM ([3]; first individual, (-) PHA): 100% | viability at 81 µM ([3]; first individual, (-) PHA): 100% | viability at 244 µM ([3]; first individual, (-) PHA): 100% | viability at 733 µM ([3]; first individual, (-) PHA): 100% | viability at 2200 µM ([3]; first individual, (-) PHA): 100% | viability at 6700 µM ([3]; first individual, (-) PHA): 100% | viability at 20000 µM ([3]; first individual, (-) PHA): 100% | viability at 3 µM ([3]; second individual, (+) PHA): 100% | viability at 9 µM ([3]; second individual, (+) PHA): 100% | viability at 27 µM ([3]; second individual, (+) PHA): 100% | viability at 81 µM ([3]; second individual, (+) PHA): 100% | viability at 244 µM ([3]; second individual, (+) PHA): 100% | viability at 733 µM ([3]; second individual, (+) PHA): 100% | viability at 2200 µM ([3]; second individual, (+) PHA): 100% | viability at 6700 µM ([3]; second individual, (+) PHA): 100% | viability at 20000 µM ([3]; second individual, (+) PHA): 100% | viability at 3 µM ([3]; second individual, (-) PHA): 100% | viability at 9 µM ([3]; second individual, (-) PHA): 100% | viability at 27 µM ([3]; second individual, (-) PHA): 100% | viability at 81 µM ([3]; second individual, (-) PHA): 100% | viability at 244 µM ([3]; second individual, (-) PHA): 100% | viability at 733 µM ([3]; second individual, (-) PHA): 100% | viability at 2200 µM ([3]; second individual, (-) PHA): 100% | viability at 6700 µM ([3]; second individual, (-) PHA): 100% | viability at 20000 µM ([3]; second individual, (-) PHA): 100% | IC50 ([4]; Homo sapiens, Lymphocyte, both assays (two individuals), read-out: concentration causing about 50% inhibition in PHA stimulation): ~309 µM | PHA stimulation, cpm ± SD ([4]; first experiment, 3.8 μM): 19888 cpm | PHA stimulation, cpm ± SD ([4]; first experiment, 11 μM): 19401 cpm | PHA stimulation, cpm ± SD ([4]; first experiment, 34 μM): 19399 cpm | PHA stimulation, cpm ± SD ([4]; first experiment, 103 μM): 18677 cpm | PHA stimulation, cpm ± SD ([4]; first experiment, 309 μM): 14098 cpm | PHA stimulation, cpm ± SD ([4]; first experiment, 926 μM): 2776 cpm | PHA stimulation, cpm ± SD ([4]; first experiment, 2.8 mM): 116 cpm | PHA stimulation, cpm ± SD ([4]; first experiment, 25 mM): 200 cpm | PHA stimulation, cpm ± SD ([4]; first experiment, 83 mM): 192 cpm | PHA stimulation, cpm ± SD ([4]; second experiment, 3.8 μM): 33799 cpm | PHA stimulation, cpm ± SD ([4]; second experiment, 11 μM): 33417 cpm | PHA stimulation, cpm ± SD ([4]; second experiment, 34 μM): 34006 cpm | PHA stimulation, cpm ± SD ([4]; second experiment, 103 μM): 30569 cpm | PHA stimulation, cpm ± SD ([4]; second experiment, 309 μM): 19713 cpm | PHA stimulation, cpm ± SD ([4]; second experiment, 926 μM): 5600 cpm | PHA stimulation, cpm ± SD ([4]; second experiment, 2.8 mM): 717 cpm | PHA stimulation, cpm ± SD ([4]; second experiment, 25 mM): 200 cpm | PHA stimulation, cpm ± SD ([4]; second experiment, 83 mM): 156 cpm

Reference: patent US5216005A, “Immunosuppressive analogues and derivatives of succinylacetone” (priority 1990, dated 1993)
